The record followed here is ChEMBL document CHEMBL1140783, “Design and synthesis of 4-quinolinone 2-carboxamides as calpain inhibitors” (Bioorg Med Chem Lett, 2008).

The target of this assay is T1, Calpain-1 catalytic subunit (Homo sapiens, UniProt P07384).
T1 sequence (P07384 whole entry): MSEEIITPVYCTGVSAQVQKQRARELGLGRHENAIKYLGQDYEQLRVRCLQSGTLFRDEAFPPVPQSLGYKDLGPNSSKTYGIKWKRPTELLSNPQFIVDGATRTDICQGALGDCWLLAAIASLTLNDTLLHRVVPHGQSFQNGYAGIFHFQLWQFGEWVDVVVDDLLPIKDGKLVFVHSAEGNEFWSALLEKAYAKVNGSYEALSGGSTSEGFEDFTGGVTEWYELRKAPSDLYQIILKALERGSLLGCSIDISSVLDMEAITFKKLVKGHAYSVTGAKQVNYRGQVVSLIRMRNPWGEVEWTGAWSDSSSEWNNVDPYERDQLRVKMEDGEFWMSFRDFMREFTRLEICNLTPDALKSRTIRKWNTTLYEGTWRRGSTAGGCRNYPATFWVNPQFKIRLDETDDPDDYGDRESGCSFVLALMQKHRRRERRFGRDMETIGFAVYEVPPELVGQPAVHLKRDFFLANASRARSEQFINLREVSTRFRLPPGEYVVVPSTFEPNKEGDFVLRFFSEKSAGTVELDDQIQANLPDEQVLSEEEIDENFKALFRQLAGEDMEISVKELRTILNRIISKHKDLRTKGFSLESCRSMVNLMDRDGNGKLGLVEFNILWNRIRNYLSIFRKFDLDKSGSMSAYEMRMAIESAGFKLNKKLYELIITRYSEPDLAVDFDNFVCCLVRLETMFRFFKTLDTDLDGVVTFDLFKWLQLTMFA
Kind of assay: Inhibition of human mu-calpain.
By IC50 is commonly meant the point on the concentration scale where inhibition reaches its midpoint. As for `CNC(=O)C(=O)[C@H](Cc1ccccc1)NC(=O)c1[nH]c2ccccc2c(=O)c1C`, the half-inhibitory concentration (IC50) stood at 8.62 µM. In other words, the single-digit micromolar range.

In turn, `CCNC(=O)C(=O)[C@H](Cc1ccccc1)NC(=O)c1nc2ccccc2c(O)c1C` had a concentration for half-maximal inhibition (IC50) of 40.2 µM. This IC50 lies about 4.7-fold higher than the previous one.

`COc1ccc(CCNC(=O)C(=O)[C@H](Cc2ccccc2)NC(=O)c2[nH]c3ccccc3c(=O)c2C)cc1` gave an IC50 of 0.73 µM.

For the compound `Cc1c(C(=O)N[C@@H](Cc2ccccc2)C(=O)C(=O)NC(C)C)nc2ccccc2c1O`, the 50% inhibitory concentration (IC50) is > 50 µM.

`Cc1c(C(=O)N[C@@H](Cc2ccccc2)C(=O)C(=O)NCc2ccccn2)nc2ccccc2c1O` displayed a concentration for half-maximal inhibition (IC50) of 7.72 µM.

The compound `Cc1c(C(=O)N[C@@H](Cc2ccccc2)C(=O)C(N)=O)oc2ccccc2c1=O` yielded a 50% inhibitory concentration (IC50) of 0.04 µM.

Compound `COc1ccc(CNC(=O)C(=O)[C@H](Cc2ccccc2)NC(=O)c2nc3ccccc3c(O)c2C)cc1` registered an IC50 of 3.81 µM.

`Cc1c(C(=O)N[C@@H](Cc2ccccc2)C(=O)C(=O)NCCc2ccccn2)[nH]c2ccccc2c1=O` displayed a half-maximal inhibitory concentration (IC50) of 6.28 µM.

`Cc1c(C(=O)N[C@@H](Cc2ccccc2)C(=O)C(=O)NCc2ccc(F)cc2)[nH]c2ccccc2c1=O`: the IC50 turned out to be 5.63 µM.

The compound `COc1ccc(CNC(=O)C(=O)[C@H](Cc2ccccc2)NC(=O)c2[nH]c3ccccc3c(=O)c2C)cc1OC` returned a half-maximal inhibitory concentration (IC50) of 1.78 µM. Against the preceding compound, the IC50 is about 3.2-fold lower.

`Cc1c(C(=O)N[C@@H](Cc2ccccc2)C(=O)C(=O)NCc2ccccc2)[nH]c2ccccc2c1=O` returned an IC50 of 5.01 µM. Compared with the last compound, the IC50 is about 2.8-fold higher.

`Cc1c(C(=O)N[C@@H](Cc2ccccc2)C(=O)C(N)=O)nc2ccccc2c1O`: the IC50 was 0.71 µM.

With `Cc1c(C(=O)N[C@@H](Cc2ccccc2)C(=O)C(=O)NCCc2ccccc2)nc2ccccc2c1O`, half-maximal inhibition (IC50) required 3.71 µM.
